Test system: Aspergillus oryzae
Description: The dose of iron was calculated as a concentration of iron elements rather than the concentration of salt; to enable comparison with the iron content in the fungal biomass. All fungal samples were thoroughly washed with deionizer water prior to testing by the ICP-OES method.
Other inorganic minerals such as selenium and zinc have been used to produce selenium or zinc enriched yeast, but the use of filamentous fungi has not been reported. […] A similar process (FIG. 2) was used for growing Aspergillus oryzae fortified with either sodium selenite or zinc sulfate. The dose of either inorganic salt was calculated as a concentration of the elements rather than the concentration of salt to enable comparison with the mineral content in the fungal biomass.

Row | Compound | effect on fungal yield | toxicity to Aspergillus oryzae (Fe3+ 1-200 mg/L in corn-ethanol Syrup)
1 | O=S(=O)([O-])[O-].[Zn+2] [Zinc, zinc sulfate] | increased fungal yield | 
2 | O=S(=O)([O-])[O-].O=S(=O)([O-])[O-].O=S(=O)([O-])[O-].[Fe+3].[Fe+3] [ferric sulfate, Ferric sulfate (Fe2(SO4)3.2H2O)] |  | not toxic

— patent publication US11478519B2, “Nutritional supplement containing iron” (CURA GLOBAL HEALTH (BVI) LIMITED, priority 2012, dated 2022)
